According to paper PMC11842588, “A first-in-class selective inhibitor of ERK1/2 and ERK5 overcomes drug resistance with a single-molecule strategy” (Signal Transduction and Targeted Therapy, 2025):

What was measured:
Test in all cases: Kinase profiling
Format in all cases: biochemical
ASK1(h) = target: T1, ASK1(h) (Homo sapiens, UniProt Q99683)
T1 construct: purchased Eurofins Cerep SA (KinaseProfiler)
Description: (§1) 380 kinases inhibitory activities of SKLB-D18 were conducted by Eurofins Cerep SA. The result was illustrated by kinase tree (http://www.kinhub.org/kinmap/).

Arg(h) = target: T2, Arg(h) (Homo sapiens, UniProt P42684)
T2 construct: purchased Eurofins Cerep SA (KinaseProfiler)
Description: as §1

CDK4/cyclinD3(h) = target: T3, CDK4/cyclinD3(h) (Homo sapiens, UniProt P11802)
T3 construct: purchased Eurofins Cerep SA (KinaseProfiler)
Description: as §1

CDK7/cyclinH/MAT1(h) = target: T4, CDK7/cyclinH/MAT1(h) (Homo sapiens, UniProt P50613)
T4 construct: purchased Eurofins Cerep SA (KinaseProfiler)
Description: as §1

CDKL2(h) = target: T5, CDKL2(h) (Homo sapiens, UniProt Q92772)
T5 construct: purchased Eurofins Cerep SA (KinaseProfiler)
Description: as §1

CK1γ2(h) = target: T6, CK1γ2(h) (Homo sapiens, UniProt P78368)
T6 construct: purchased Eurofins Cerep SA (KinaseProfiler)
Description: as §1

CK2α1(h) = target: T7, CK2α1(h) (Homo sapiens, UniProt P68400)
T7 construct: purchased Eurofins Cerep SA (KinaseProfiler)
Description: as §1

CaMKK1(h) = target: T8, CaMKK1(h) (Homo sapiens, UniProt Q8N5S9)
T8 construct: purchased Eurofins Cerep SA (KinaseProfiler)
Description: as §1

ChaK1(h) = target: T9, ChaK1(h) (Homo sapiens, UniProt Q96QT4)
T9 construct: purchased Eurofins Cerep SA (KinaseProfiler)
Description: as §1

DAPK1(h) = target: T10, DAPK1(h) (Homo sapiens, UniProt P53355)
T10 construct: purchased Eurofins Cerep SA (KinaseProfiler)
Description: as §1

DAPK2(h) = target: T11, DAPK2(h) (Homo sapiens, UniProt Q9UIK4)
T11 construct: purchased Eurofins Cerep SA (KinaseProfiler)
Description: as §1

DDR1(h) = target: T12, DDR1(h) (Homo sapiens, UniProt Q08345)
T12 construct: purchased Eurofins Cerep SA (KinaseProfiler)
Description: as §1

DRAK1(h) = target: T13, DRAK1(h) (Homo sapiens, UniProt Q9UEE5)
T13 construct: purchased Eurofins Cerep SA (KinaseProfiler)
Description: as §1

EphA3(h) = target: T14, EphA3(h) (Homo sapiens, UniProt P29320)
T14 construct: purchased Eurofins Cerep SA (KinaseProfiler)
Description: as §1

Flt1(h) = target: T15, Flt1(h) (Homo sapiens, UniProt P17948)
T15 construct: purchased Eurofins Cerep SA (KinaseProfiler)
Description: as §1

Fyn(h) = target: T16, Fyn(h) (Homo sapiens, UniProt P06241)
T16 construct: purchased Eurofins Cerep SA (KinaseProfiler)
Description: as §1

GRK4(h) = target: T17, GRK4(h) (Homo sapiens, UniProt P32298)
T17 construct: purchased Eurofins Cerep SA (KinaseProfiler)
Description: as §1

IGF-1R(h), activated = target: T18, IGF-1R(h), activated (Homo sapiens, UniProt P08069)
T18 construct: purchased Eurofins Cerep SA (KinaseProfiler)
Description: as §1

IRAK1(h) = target: T19, IRAK1(h) (Homo sapiens, UniProt P51617)
T19 construct: purchased Eurofins Cerep SA (KinaseProfiler)
Description: as §1

MARK3(h) = target: T20, MARK3(h) (Homo sapiens, UniProt P27448)
T20 construct: purchased Eurofins Cerep SA (KinaseProfiler)
Description: as §1

MARK4(h) = target: T21, MARK4(h) (Homo sapiens, UniProt Q96L34)
T21 construct: purchased Eurofins Cerep SA (KinaseProfiler)
Description: as §1

MINK(h) = target: T22, MINK(h) (Homo sapiens, UniProt Q8N4C8)
T22 construct: purchased Eurofins Cerep SA (KinaseProfiler)
Description: as §1

MKK3(h) = target: T23, MKK3(h) (Homo sapiens, UniProt P46734)
T23 construct: purchased Eurofins Cerep SA (KinaseProfiler)
Description: as §1

NEK11(h) = target: T24, NEK11(h) (Homo sapiens, UniProt Q8NG66)
T24 construct: purchased Eurofins Cerep SA (KinaseProfiler)
Description: as §1

OSR1(h) = target: T25, OSR1(h) (Homo sapiens, UniProt O95747)
T25 construct: purchased Eurofins Cerep SA (KinaseProfiler)
Description: as §1

PDGFRβ(h) = target: T26, PDGFRβ(h) (Homo sapiens, UniProt P09619)
T26 construct: purchased Eurofins Cerep SA (KinaseProfiler)
Description: as §1

PDHK2(h) = target: T27, PDHK2(h) (Homo sapiens, UniProt Q15119)
T27 construct: purchased Eurofins Cerep SA (KinaseProfiler)
Description: as §1

[1] = target: T28, PI3 Kinase (p110b/p85a)(h) (Homo sapiens, UniProt P42338)
T28 construct: purchased Eurofins Cerep SA (KinaseProfiler)
Description: as §1

PIP5K1a(h) = target: T29, PIP5K1a(h) (Homo sapiens, UniProt Q99755)
T29 construct: purchased Eurofins Cerep SA (KinaseProfiler)
Description: as §1

Pim-3(h) = target: T30, Pim-3(h) (Homo sapiens, UniProt Q86V86)
T30 construct: purchased Eurofins Cerep SA (KinaseProfiler)
Description: as §1

PrKX(h) = target: T31, PrKX(h) (Homo sapiens, UniProt P51817)
T31 construct: purchased Eurofins Cerep SA (KinaseProfiler)
Description: as §1

Rsk4(h) = target: T32, Rsk4(h) (Homo sapiens, UniProt Q9UK32)
T32 construct: purchased Eurofins Cerep SA (KinaseProfiler)
Description: as §1

SGK(h) = target: T33, SGK(h) (Homo sapiens, UniProt O00141)
T33 construct: purchased Eurofins Cerep SA (KinaseProfiler)
Description: as §1

SGK2(h) = target: T34, SGK2(h) (Homo sapiens, UniProt Q9HBY8)
T34 construct: purchased Eurofins Cerep SA (KinaseProfiler)
Description: as §1

SGK3(h) = target: T35, SGK3(h) (Homo sapiens, UniProt Q96BR1)
T35 construct: purchased Eurofins Cerep SA (KinaseProfiler)
Description: as §1

SIK2(h) = target: T36, SIK2(h) (Homo sapiens, UniProt Q9H0K1)
T36 construct: purchased Eurofins Cerep SA (KinaseProfiler)
Description: as §1

SLK(h) = target: T37, SLK(h) (Homo sapiens, UniProt Q9H2G2)
T37 construct: purchased Eurofins Cerep SA (KinaseProfiler)
Description: as §1

SRMS(h) = target: T38, SRMS(h) (Homo sapiens, UniProt Q9H3Y6)
T38 construct: purchased Eurofins Cerep SA (KinaseProfiler)
Description: as §1

STK39(h) = target: T39, STK39(h) (Homo sapiens, UniProt Q9UEW8)
T39 construct: purchased Eurofins Cerep SA (KinaseProfiler)
Description: as §1

mTOR/FKBP12(h) = target: T40, mTOR/FKBP12(h) (Homo sapiens, UniProt P42345)
T40 construct: purchased Eurofins Cerep SA (KinaseProfiler)
Description: as §1

T14 sequence (P29320 21-983): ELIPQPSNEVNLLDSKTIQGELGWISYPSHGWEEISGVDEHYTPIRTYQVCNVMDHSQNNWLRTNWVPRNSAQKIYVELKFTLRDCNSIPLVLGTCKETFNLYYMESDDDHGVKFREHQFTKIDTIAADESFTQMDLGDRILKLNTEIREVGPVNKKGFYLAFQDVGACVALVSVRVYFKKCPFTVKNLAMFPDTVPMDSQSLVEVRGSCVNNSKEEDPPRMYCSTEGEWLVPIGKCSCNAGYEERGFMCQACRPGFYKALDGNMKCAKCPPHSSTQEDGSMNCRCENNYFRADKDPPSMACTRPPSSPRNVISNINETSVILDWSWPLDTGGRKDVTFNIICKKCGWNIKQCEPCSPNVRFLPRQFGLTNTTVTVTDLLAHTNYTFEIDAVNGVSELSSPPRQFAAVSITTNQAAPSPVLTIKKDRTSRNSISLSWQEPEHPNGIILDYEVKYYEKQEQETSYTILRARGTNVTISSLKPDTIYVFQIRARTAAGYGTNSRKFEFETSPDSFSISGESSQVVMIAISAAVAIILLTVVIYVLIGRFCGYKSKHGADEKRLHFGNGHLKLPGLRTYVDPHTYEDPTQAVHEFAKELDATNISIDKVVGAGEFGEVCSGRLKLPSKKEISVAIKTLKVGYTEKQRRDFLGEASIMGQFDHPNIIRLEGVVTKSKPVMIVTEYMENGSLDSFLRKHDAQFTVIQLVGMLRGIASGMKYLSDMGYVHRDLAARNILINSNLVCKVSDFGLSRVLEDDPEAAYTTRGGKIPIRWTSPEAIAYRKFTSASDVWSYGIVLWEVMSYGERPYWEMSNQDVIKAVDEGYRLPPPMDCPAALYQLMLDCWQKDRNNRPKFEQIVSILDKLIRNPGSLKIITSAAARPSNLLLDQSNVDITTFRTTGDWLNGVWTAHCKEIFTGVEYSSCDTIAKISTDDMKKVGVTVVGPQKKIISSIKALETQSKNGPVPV
T5 sequence (Q92772 whole entry): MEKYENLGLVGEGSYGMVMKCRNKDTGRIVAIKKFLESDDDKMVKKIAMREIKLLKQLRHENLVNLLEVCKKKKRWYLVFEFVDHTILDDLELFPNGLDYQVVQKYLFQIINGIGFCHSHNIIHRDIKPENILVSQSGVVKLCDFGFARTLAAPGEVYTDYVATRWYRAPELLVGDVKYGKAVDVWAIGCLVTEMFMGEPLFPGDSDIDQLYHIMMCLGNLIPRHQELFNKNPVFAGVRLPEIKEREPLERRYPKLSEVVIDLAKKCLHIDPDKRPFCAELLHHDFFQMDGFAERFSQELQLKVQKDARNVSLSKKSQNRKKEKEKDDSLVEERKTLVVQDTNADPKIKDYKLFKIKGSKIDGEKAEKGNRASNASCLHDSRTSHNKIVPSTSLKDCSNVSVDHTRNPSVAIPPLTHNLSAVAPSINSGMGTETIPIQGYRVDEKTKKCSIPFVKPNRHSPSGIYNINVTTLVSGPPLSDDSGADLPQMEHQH
T2 sequence (P42684 whole entry): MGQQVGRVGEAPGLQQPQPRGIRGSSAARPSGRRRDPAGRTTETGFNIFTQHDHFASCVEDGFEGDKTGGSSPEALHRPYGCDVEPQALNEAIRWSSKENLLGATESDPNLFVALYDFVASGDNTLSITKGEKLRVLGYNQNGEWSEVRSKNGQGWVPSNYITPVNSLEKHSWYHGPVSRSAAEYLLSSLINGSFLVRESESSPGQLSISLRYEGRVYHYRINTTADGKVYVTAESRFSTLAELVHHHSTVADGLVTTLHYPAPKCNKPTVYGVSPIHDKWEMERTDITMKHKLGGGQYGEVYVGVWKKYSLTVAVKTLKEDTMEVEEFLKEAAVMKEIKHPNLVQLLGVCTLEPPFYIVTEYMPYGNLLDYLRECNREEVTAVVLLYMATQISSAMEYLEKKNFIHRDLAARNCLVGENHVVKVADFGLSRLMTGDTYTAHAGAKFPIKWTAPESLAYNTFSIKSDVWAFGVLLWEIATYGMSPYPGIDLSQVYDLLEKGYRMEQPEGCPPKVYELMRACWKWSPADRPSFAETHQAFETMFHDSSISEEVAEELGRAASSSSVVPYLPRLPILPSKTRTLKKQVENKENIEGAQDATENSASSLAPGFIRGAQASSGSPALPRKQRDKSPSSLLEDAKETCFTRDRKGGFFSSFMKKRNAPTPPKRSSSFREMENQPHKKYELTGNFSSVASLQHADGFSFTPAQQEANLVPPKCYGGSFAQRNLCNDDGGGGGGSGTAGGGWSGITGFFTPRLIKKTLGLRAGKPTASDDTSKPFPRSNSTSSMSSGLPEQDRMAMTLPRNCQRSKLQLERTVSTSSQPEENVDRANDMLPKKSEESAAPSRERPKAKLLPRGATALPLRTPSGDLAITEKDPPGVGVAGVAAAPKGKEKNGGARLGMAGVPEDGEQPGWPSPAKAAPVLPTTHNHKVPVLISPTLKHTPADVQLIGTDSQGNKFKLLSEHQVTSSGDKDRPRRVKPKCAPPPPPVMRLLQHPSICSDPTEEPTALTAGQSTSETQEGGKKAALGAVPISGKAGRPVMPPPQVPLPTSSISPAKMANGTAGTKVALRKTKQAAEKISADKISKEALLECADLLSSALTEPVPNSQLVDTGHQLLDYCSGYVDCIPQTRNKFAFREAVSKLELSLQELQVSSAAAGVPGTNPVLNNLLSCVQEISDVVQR
T28 sequence (P42338 whole entry): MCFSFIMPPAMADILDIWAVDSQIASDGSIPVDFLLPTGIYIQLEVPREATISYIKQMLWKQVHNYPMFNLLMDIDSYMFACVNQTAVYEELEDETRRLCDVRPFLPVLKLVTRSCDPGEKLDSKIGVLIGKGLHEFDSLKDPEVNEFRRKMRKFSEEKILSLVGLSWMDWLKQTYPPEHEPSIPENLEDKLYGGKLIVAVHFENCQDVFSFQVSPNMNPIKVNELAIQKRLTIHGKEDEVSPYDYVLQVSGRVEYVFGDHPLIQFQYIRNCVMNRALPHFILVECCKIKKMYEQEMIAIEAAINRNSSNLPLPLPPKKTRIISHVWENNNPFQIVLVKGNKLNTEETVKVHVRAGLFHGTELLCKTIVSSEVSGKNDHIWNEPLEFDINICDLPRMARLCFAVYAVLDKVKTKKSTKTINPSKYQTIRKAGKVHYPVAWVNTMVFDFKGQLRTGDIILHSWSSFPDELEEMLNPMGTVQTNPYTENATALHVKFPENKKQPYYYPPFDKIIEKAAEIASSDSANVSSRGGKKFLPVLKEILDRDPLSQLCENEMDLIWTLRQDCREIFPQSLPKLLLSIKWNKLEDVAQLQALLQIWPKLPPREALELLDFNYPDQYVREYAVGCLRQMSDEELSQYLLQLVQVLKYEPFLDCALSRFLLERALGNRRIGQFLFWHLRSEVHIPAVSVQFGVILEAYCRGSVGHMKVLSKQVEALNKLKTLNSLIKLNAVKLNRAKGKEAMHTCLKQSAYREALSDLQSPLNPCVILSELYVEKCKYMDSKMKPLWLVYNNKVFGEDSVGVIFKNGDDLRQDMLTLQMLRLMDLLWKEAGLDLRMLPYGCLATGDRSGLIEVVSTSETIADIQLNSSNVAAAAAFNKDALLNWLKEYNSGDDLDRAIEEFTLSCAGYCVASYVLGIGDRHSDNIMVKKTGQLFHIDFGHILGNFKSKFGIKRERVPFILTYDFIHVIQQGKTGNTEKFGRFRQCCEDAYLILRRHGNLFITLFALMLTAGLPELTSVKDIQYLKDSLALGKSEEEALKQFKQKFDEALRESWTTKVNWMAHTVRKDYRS
T28 sequence (P27986 whole entry partner): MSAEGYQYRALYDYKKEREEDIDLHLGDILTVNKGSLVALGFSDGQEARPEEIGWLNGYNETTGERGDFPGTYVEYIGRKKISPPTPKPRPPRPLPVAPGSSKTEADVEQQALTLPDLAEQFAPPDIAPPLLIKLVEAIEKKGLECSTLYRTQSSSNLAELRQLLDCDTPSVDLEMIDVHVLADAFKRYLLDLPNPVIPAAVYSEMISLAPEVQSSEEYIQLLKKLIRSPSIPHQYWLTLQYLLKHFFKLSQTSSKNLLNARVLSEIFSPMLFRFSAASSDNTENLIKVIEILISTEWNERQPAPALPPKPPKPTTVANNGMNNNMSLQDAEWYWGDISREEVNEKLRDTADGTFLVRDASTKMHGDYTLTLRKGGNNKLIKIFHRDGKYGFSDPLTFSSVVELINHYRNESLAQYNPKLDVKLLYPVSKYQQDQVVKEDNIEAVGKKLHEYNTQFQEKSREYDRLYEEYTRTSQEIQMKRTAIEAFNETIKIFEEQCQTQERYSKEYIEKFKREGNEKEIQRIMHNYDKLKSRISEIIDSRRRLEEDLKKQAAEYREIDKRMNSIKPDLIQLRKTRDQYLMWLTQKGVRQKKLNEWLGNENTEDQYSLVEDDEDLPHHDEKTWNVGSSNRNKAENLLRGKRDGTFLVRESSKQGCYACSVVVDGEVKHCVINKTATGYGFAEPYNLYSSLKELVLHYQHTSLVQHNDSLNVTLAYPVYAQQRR
T25 sequence (O95747 whole entry): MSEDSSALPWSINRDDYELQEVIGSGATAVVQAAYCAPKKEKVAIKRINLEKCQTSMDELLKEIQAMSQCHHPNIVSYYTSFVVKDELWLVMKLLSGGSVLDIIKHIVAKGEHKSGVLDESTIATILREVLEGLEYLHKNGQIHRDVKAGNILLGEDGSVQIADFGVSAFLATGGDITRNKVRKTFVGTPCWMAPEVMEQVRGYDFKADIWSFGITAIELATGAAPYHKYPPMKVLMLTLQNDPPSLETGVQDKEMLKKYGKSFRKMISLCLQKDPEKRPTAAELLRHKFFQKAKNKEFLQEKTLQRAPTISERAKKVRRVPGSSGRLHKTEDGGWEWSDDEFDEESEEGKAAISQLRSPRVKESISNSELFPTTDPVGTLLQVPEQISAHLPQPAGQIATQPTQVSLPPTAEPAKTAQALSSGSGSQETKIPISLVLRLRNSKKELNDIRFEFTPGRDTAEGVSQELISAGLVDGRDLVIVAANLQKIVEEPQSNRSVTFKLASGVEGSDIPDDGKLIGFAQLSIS

With `CN(C)Cc1cccc(Nc2ncc(Cl)c(-c3csc(C(=O)NN4CCOCC4)c3)n2)c1` [SKLB-D18, 4-(5-chloro-2-((3-((dimethylamino)methyl)phenyl)amino)pyrimidin-4-yl)-N-morpholinothiophene-2-carboxamide] the inhibition at 1 µM (ASK1(h)) was -5%, the inhibition at 1 µM (Arg(h)) was 43% and the inhibition at 1 µM (CDK4/cyclinD3(h)) was 60%. For the same molecule, the inhibition at 1 µM (CDK7/cyclinH/MAT1(h)) was 57%, the inhibition at 1 µM (CDKL2(h)) was 39% and the inhibition at 1 µM (CK1γ2(h)) was 18%. The inhibition at 1 µM (CK2α1(h)) was 49%, the inhibition at 1 µM (CaMKK1(h)) was 12% and the inhibition at 1 µM (ChaK1(h)) was 0%. It also gave an inhibition at 1 µM (DAPK1(h)) of 67%, an inhibition at 1 µM (DAPK2(h)) of 53% and an inhibition at 1 µM (DDR1(h)) of 35%. It also gave an inhibition at 1 µM (DRAK1(h)) of 44%, an inhibition at 1 µM (EphA3(h)) of 12% and an inhibition at 1 µM (Flt1(h)) of 39%. For the same molecule, the inhibition at 1 µM (Fyn(h)) was 60%, the inhibition at 1 µM (GRK4(h)) was 16% and the inhibition at 1 µM (IGF-1R(h), activated) was 0%. It also gave an inhibition at 1 µM (IRAK1(h)) of 60%, an inhibition at 1 µM (MARK3(h)) of 68% and an inhibition at 1 µM (MARK4(h)) of 64%. The inhibition at 1 µM (MINK(h)) was 22%, the inhibition at 1 µM (MKK3(h)) was 4% and the inhibition at 1 µM (NEK11(h)) was -4%. It also gave an inhibition at 1 µM (OSR1(h)) of 28%, an inhibition at 1 µM (PDGFRβ(h)) of 21% and an inhibition at 1 µM (PDHK2(h)) of 14%. For the same molecule, the inhibition at 1 µM [1] was 8%, the inhibition at 1 µM (PIP5K1a(h)) was -5% and the inhibition at 1 µM (Pim-3(h)) was 33%. It also gave an inhibition at 1 µM (PrKX(h)) of 43%, an inhibition at 1 µM (Rsk4(h)) of 63% and an inhibition at 1 µM (SGK(h)) of 11%. The inhibition at 1 µM (SGK2(h)) was 11%, the inhibition at 1 µM (SGK3(h)) was 9% and the inhibition at 1 µM (SIK2(h)) was 67%. It also gave an inhibition at 1 µM (SLK(h)) of 4%, an inhibition at 1 µM (SRMS(h)) of 11% and an inhibition at 1 µM (STK39(h)) of 37%. It also gave an inhibition at 1 µM (mTOR/FKBP12(h)) of 8%.
